In patent publication US4950686A, “Anti-mycoplasma agent” (Shionogi & Co., Ltd., priority 1986, dated 1990):
Values after ≈ are worked out from the molar mass of the structure shown. Counter-ions that a name gives are not always drawn. Like-named read-outs stand apart in the source and are kept apart here.

Assays:
[1] = test system: Mycoplasma gallisepticum S6 (standard strain); experiment: Anti-mycoplasma activity in vitro (MIC, broth dilution), strain S6; format: cell-based; details: Mg S6, 37° C., 7 days
In short: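 Chick PPLO broth with 20% equine serum; 2-fold serial agent dilutions inoculated with culture diluted to 10^6 CCU/ml (inoculum concentration before addition). Incubated 7 days at 37 °C; MIC by broth dilution.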

[2] = test system: Mycoplasma gallisepticum T-7-T (wild strain, tylosin-resistant); experiment: Anti-mycoplasma activity in vitro (MIC, broth dilution), strain T-7-T; format: cell-based; details: Mg T-7-T, 37° C., 7 days
In short: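 Broth dilution MIC in chick PPLO broth with 20% equine serum, using 2-fold agent dilutions. Inoculum of 24-48 h culture diluted to 10^6 CCU/ml before use. Incubated 7 days at 37° C.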

[3] = test system: Mycoplasma gallisepticum MR-1 (wild strain, tylosin-resistant); experiment: Anti-mycoplasma activity in vitro (MIC, broth dilution), strain MR-1; format: cell-based; details: Mg MR-1, 37° C., 7 days
In short: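 Broth dilution in chick PPLO broth with 20% equine serum; 2-fold compound dilutions, inoculum diluted to 10^6 CCU/ml. Incubated 7 days at 37 °C; MIC recorded.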

[4] = test system: Mycoplasma hyopneumoniae ST-11 (standard strain); experiment: Anti-mycoplasma activity in vitro (MIC, broth dilution), strain ST-11; format: cell-based; details: Mh ST-11
In short: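 MIC by broth dilution in Hanks' solution with 0.5% lactoalbumin, yeast, equine serum and phenol red, pH 7.4-7.6. Inoculum: 3-4-day culture, turned yellow, diluted 10-fold in broth (subcultured first if yellowing took over 4 days).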

[5] = test system: Mycoplasma gallisepticum S6 (standard strain); experiment: Mycoplasma gallisepticum air-sac infection method in chicken, strain S6; format: in vivo, Mycoplasma gallisepticum; SPF chicken (white leghorn)
Protocol: (§1) (2) Test of Effectiveness Mycoplasma gallisepticum air-sac infection method
(§2) Inoculation: To the right air-sac of 9 days old SPF chicken (a white leghorn) which has abstained from water and feed one day before is inoculated 0.20-0.25 ml/chicken of fresh mycoplasma culture incubated for 24-48 hr and diluted with broth (usually 100 times). The concentration in Table 2 is shown in a unit of mg/ml.
(§3) Medium: Chick PPLO broth supplemented with 15% equine serum (Eiken Kagaku Co., Ltd.)
(§4) Administration: A compound of this invention dissolved or suspended in the following solution is orally and forcibly administered once by a cannula immediately after the infection.
(§5) Anatomization and Isolation of Microorganism: The chickens are anatomized 5 days after the infection, and the right and left air sacs are investigated whether they are attacked with a disease or not. The change caused by the disease is represented in four degrees; -: no change, +: slight, ++: medium and +++: serious. Microorganism is isolated from the right and left air-sacs and the trachea by using a sterilized applicator.
(§6) Judgement: Judgement is done through an index of an air-sac disease and an index of a microorganism-isolation.
(§7) Index of an air-sac-disease: First, indexes in the right and left air-sacs are separately calculated according to the following formula;
(§8) {degree of disease (0-3)×chickens}/anatomized chickens
(§9) and the index is calculated by the following formula;
(§10) (index of right air-sac)×1+(index of left air-sac)×2
(§11) Index of a microorganism isolation:
(§12) P: chickens from the right air-sac of which microorganism is isolated,
(§13) Q: chickens from the trachea of which microorganism is isolated,
(§14) R: chickens from the left air-sac of which microorganism is isolated, and
(§15) S: chickens investigated.

[6] = test system: Mycoplasma gallisepticum T-7-T (wild strain, tylosin-resistant); experiment: Mycoplasma gallisepticum air-sac infection method in chicken, strain T-7-T;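 as to Index of Isolation: index = (P×1 + Q×2 + R×3)/S with range 0 to 6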; format: in vivo, Mycoplasma gallisepticum; SPF chicken (white leghorn); details: 100 mg/kg × once oral, 10 mg/ml sol. b; for Change of air-sac, left: + (chickens) / Change of air-sac, left: ++ (chickens) / Change of air-sac, left: +++ (chickens) / Change of air-sac, left: - (chickens) / Change of air-sac, right: + (chickens) / Change of air-sac, right: ++ (chickens) / Change of air-sac, right: +++ (chickens) / Change of air-sac, right: - (chickens) / Isolation, L (left air-sac) / Isolation, R (right air-sac) / Isolation, T (trachea) / Mycoplasma Isolated Chickens: inoculum 10^2; for Index of Isolation: inoculum 10^2, range 0-6.0; for Index of Disease: inoculum 10^2, range 0-9.0
Protocol: as §1
T-7-T (wild strain, tylosin-resistant)
as §2, §3, §4, §5, §6, §7, §8, §9, §10, §11, §12, §13, §14, §15

[7] = Acute toxicity test in chickens; format: in vivo, SPF chickens of layer type; details: 400 mg/kg or 200 mg/kg once oral, 2 weeks; for increase of weight: vs control group
Protocol: Acute toxicity tests on tropolone L-lysine salt and O-acetyltropolone were performed according to the following method.
The tests had been done on 15 days old SPF chickens of layer type (5 males and 5 females) for 2 weeks. The above two compounds suspended in 5% gum arabic are orally and forcibly administered once at a dose of 400 mg/kg or 200 mg/kg. To a control group is administered 5% gum arabic.

[8] = 100 mg/kg × once oral, 10 mg/ml sol. b, inoculum 1.2 × 10^6
[9] = 100 mg/kg × once oral, 10 mg/ml sol. b, inoculum 1.2 × 10^6, range 0-6.0
[10] = 100 mg/kg × once oral, 10 mg/ml sol. b, inoculum 1.2 × 10^6, range 0-9.0
[11] = 200 mg/kg × once oral, 20 mg/ml sol. b, inoculum 1.18 × 10^6
[12] = Mycoplasmoides gallisepticum, 168 h, read-out: MIC
[13] = 200 mg/kg × once oral, 20 mg/ml sol. c, inoculum 6.3 × 10^4

## O=c1cccccc1O [Compound 11, Tropolone L-lysine salt]
[1]
  MIC: 0.39 µg/mL
[2]
  MIC: 0.78 µg/mL
[3]
  MIC: 0.78 µg/mL
[4]
  MIC: 0.78 µg/mL
[5]; [8]
  Change of air-sac, left: + (chickens): 0
  Change of air-sac, left: ++ (chickens): 0
  Change of air-sac, left: +++ (chickens): 0
  Change of air-sac, left: - (chickens): 8
  Change of air-sac, right: + (chickens): 0
  Change of air-sac, right: ++ (chickens): 0
  Change of air-sac, right: +++ (chickens): 0
  Change of air-sac, right: - (chickens): 8
  Isolation, L (left air-sac): 2
  Isolation, R (right air-sac): 0
  Isolation, T (trachea): 1
  Mycoplasma Isolated Chickens: 2
[5]; [9]
  Index of Isolation: 0.54
[5]; [10]
  Index of Disease: 0
[5]; [11]
  Change of air-sac, left: + (chickens): 0
  Change of air-sac, left: ++ (chickens): 0
  Change of air-sac, left: +++ (chickens): 0
  Change of air-sac, left: - (chickens): 5
  Change of air-sac, right: + (chickens): 0
  Change of air-sac, right: ++ (chickens): 0
  Change of air-sac, right: +++ (chickens): 0
  Change of air-sac, right: - (chickens): 5
  Isolation, L (left air-sac): 0
  Isolation, R (right air-sac): 4
  Isolation, T (trachea): 0
  Mycoplasma Isolated Chickens: 4
[5]; 200 mg/kg × once oral, 20 mg/ml sol. b, inoculum 1.18 × 10^6, range 0-6.0
  Index of Isolation: 0.8
[5]; 200 mg/kg × once oral, 20 mg/ml sol. b, inoculum 1.18 × 10^6, range 0-9.0
  Index of Disease: 0
[6]
  Change of air-sac, left: + (chickens): 0
  Change of air-sac, left: ++ (chickens): 0
  Change of air-sac, left: +++ (chickens): 0
  Change of air-sac, left: - (chickens): 8
  Change of air-sac, right: + (chickens): 0
  Change of air-sac, right: ++ (chickens): 0
  Change of air-sac, right: +++ (chickens): 0
  Change of air-sac, right: - (chickens): 8
  Isolation, L (left air-sac): 1
  Isolation, R (right air-sac): 4
  Isolation, T (trachea): 5
  Mycoplasma Isolated Chickens: 5
  Index of Isolation: 2.90
  Index of Disease: 0
[7]
  deaths: none of chickens died
  increase of weight: equal to the control group

## O=C1OC(Oc2cccccc2=O)c2ccccc21 (stereo not drawn) [Compound 23, O-(1,3-Dihydro-3-oxo-1-isobenzofuranyl)tropolone]
[1]; [12]
  MIC: 0.39 µg/mL (≈ 1.53 µM)
[2]; [12]
  MIC: 0.78 µg/mL (≈ 3.07 µM)
[3]; [12]
  MIC: 0.78 µg/mL (≈ 3.07 µM)
[4]; Mesomycoplasma hyopneumoniae, read-out: MIC
  MIC: 0.39 µg/mL (≈ 1.53 µM)
[5]; [8]
  Change of air-sac, left: + (chickens): 0
  Change of air-sac, left: ++ (chickens): 0
  Change of air-sac, left: +++ (chickens): 0
  Change of air-sac, left: - (chickens): 8
  Change of air-sac, right: + (chickens): 0
  Change of air-sac, right: ++ (chickens): 0
  Change of air-sac, right: +++ (chickens): 0
  Change of air-sac, right: - (chickens): 8
  Isolation, L (left air-sac): 1
  Isolation, R (right air-sac): 1
  Isolation, T (trachea): 4
  Mycoplasma Isolated Chickens: 4
[5]; [9]
  Index of Isolation: 1.90
[5]; [10]
  Index of Disease: 0
[6]
  Change of air-sac, left: + (chickens): 0
  Change of air-sac, left: ++ (chickens): 0
  Change of air-sac, left: +++ (chickens): 0
  Change of air-sac, left: - (chickens): 8
  Change of air-sac, right: + (chickens): 0
  Change of air-sac, right: ++ (chickens): 0
  Change of air-sac, right: +++ (chickens): 0
  Change of air-sac, right: - (chickens): 8
  Isolation, L (left air-sac): 6
  Isolation, R (right air-sac): 5
  Isolation, T (trachea): 6
  Mycoplasma Isolated Chickens: 6
  Index of Isolation: 4.20
  Index of Disease: 0

## CC(=O)Oc1cccccc1=O [Compound 13, O-Acetyltropolone]
[1]; [12]
  MIC: 0.39 µg/mL (≈ 2.38 µM)
[2]; [12]
  MIC: 0.78 µg/mL (≈ 4.75 µM)
[3]; [12]
  MIC: 0.78 µg/mL (≈ 4.75 µM)
[5]; [8]
  Change of air-sac, left: + (chickens): 0
  Change of air-sac, left: ++ (chickens): 0
  Change of air-sac, left: +++ (chickens): 0
  Change of air-sac, left: - (chickens): 8
  Change of air-sac, right: + (chickens): 1
  Change of air-sac, right: ++ (chickens): 0
  Change of air-sac, right: +++ (chickens): 0
  Change of air-sac, right: - (chickens): 7
  Isolation, L (left air-sac): 2
  Isolation, R (right air-sac): 2
  Isolation, T (trachea): 3
  Mycoplasma Isolated Chickens: 3
[5]; [9]
  Index of Isolation: 1.75
[5]; [10]
  Index of Disease: 0.1
[5]; [13]
  Change of air-sac, left: + (chickens): 0
  Change of air-sac, left: ++ (chickens): 0
  Change of air-sac, left: +++ (chickens): 0
  Change of air-sac, left: - (chickens): 5
  Change of air-sac, right: + (chickens): 0
  Change of air-sac, right: ++ (chickens): 0
  Change of air-sac, right: +++ (chickens): 0
  Change of air-sac, right: - (chickens): 5
  Isolation, L (left air-sac): 0
  Isolation, R (right air-sac): 0
  Mycoplasma Isolated Chickens: 0
[5]; 200 mg/kg × once oral, 20 mg/ml sol. c, inoculum 6.3 × 10^4, range 0-9.0
  Index of Disease: 0
[5]; 200 mg/kg × once oral, 20 mg/ml sol. c, inoculum 6.3 × 10^4, trachea ND, range 0-6.0
  Index of Isolation: 0
[6]
  Change of air-sac, left: + (chickens): 0
  Change of air-sac, left: ++ (chickens): 0
  Change of air-sac, left: +++ (chickens): 0
  Change of air-sac, left: - (chickens): 8
  Change of air-sac, right: + (chickens): 0
  Change of air-sac, right: ++ (chickens): 0
  Change of air-sac, right: +++ (chickens): 0
  Change of air-sac, right: - (chickens): 8
  Isolation, L (left air-sac): 1
  Isolation, R (right air-sac): 1
  Isolation, T (trachea): 2
  Mycoplasma Isolated Chickens: 2
  Index of Isolation: 0.90
  Index of Disease: 0
[7]
  deaths: none of chickens died
  increase of weight: a little inferior to the control-group
